Test results from PubChem BioAssay AID248 (DTP/NCI, 2004).
“And” between values parts separate entries of the source, which are not always exact repeats. Equal values may be shown once. Toxic doses and inconclusive results are not listed.

Test system: L1210 leukemia ip in BDF1 mice, survival T/C
Experiment: NCI In Vivo Anticancer Drug Screen. Data for tumor model L1210 Leukemia (intraperitoneal) in B6D2F1 (BDF1) mice
Conditions: endpoint: mean survival time, higher = longer survival
Summary of the method: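 Tumor cells were implanted, animals were treated, and survival was followed. The result divides the treated measurement by the vehicle-control measurement.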

[1] = dose: 50.0 mg/kg/injection, schedule: Q01DX009 (ip), vehicle: Klucel (hydroxypropylcellulose) (HPC)
[2] = dose: 100.0 mg/kg/injection, schedule: Q01DX009 (ip), vehicle: Klucel (hydroxypropylcellulose) (HPC)
[3] = dose: 100.0 mg/kg/injection, schedule: Q04DX003 (ip), vehicle: Klucel (hydroxypropylcellulose) (HPC)
[4] = dose: 200.0 mg/kg/injection, schedule: Q04DX003 (ip), vehicle: Klucel (hydroxypropylcellulose) (HPC)
[5] = dose: 400.0 mg/kg/injection, schedule: Q04DX003 (ip), vehicle: Klucel (hydroxypropylcellulose) (HPC)
[6] = dose: 100.0 mg/kg/injection, schedule: Q01DX001 (ip), vehicle: saline
[7] = dose: 100.0 mg/kg/injection, schedule: Q04DX003 (ip), vehicle: saline with Tween-80
[8] = dose: 200.0 mg/kg/injection, schedule: Q01DX001 (ip), vehicle: saline
[9] = dose: 200.0 mg/kg/injection, schedule: Q04DX003 (ip), vehicle: saline with Tween-80
[10] = dose: 400.0 mg/kg/injection, schedule: Q04DX003 (ip), vehicle: saline with Tween-80
[11] = dose: 200.0 mg/kg/injection, schedule: Q01DX009 (ip), vehicle: Klucel (hydroxypropylcellulose) (HPC)
[12] = dose: 400.0 mg/kg/injection, schedule: Q01DX009 (ip), vehicle: Klucel (hydroxypropylcellulose) (HPC)
[13] = dose: 100.0 mg/kg/injection, schedule: Q01DX001 (ip), vehicle: carboxymethylcellulose (CMC)
[14] = dose: 200.0 mg/kg/injection, schedule: Q01DX001 (ip), vehicle: carboxymethylcellulose (CMC)
[15] = dose: 400.0 mg/kg/injection, schedule: Q01DX001 (ip), vehicle: carboxymethylcellulose (CMC)
[16] = dose: 100.0 mg/kg/injection, schedule: Q04DX002 (ip), vehicle: saline
[17] = dose: 200.0 mg/kg/injection, schedule: Q04DX002 (ip), vehicle: saline
[18] = dose: 100.0 mg/kg/injection, schedule: Q04DX002 (ip), vehicle: saline with Tween-80
[19] = dose: 200.0 mg/kg/injection, schedule: Q04DX002 (ip), vehicle: saline with Tween-80
[20] = dose: 400.0 mg/kg/injection, schedule: Q04DX002 (ip), vehicle: saline with Tween-80
[21] = dose: 100.0 mg/kg/injection, schedule: Q01DX001 (ip), vehicle: Klucel (hydroxypropylcellulose) (HPC)
[22] = dose: 200.0 mg/kg/injection, schedule: Q01DX001 (ip), vehicle: Klucel (hydroxypropylcellulose) (HPC)
[23] = dose: 400.0 mg/kg/injection, schedule: Q01DX001 (ip), vehicle: Klucel (hydroxypropylcellulose) (HPC)
[24] = dose: 50.0 mg/kg/injection, schedule: Q01DX009 (ip), vehicle: saline with Tween-80
[25] = dose: 100.0 mg/kg/injection, schedule: Q01DX009 (ip), vehicle: saline with Tween-80
[26] = dose: 200.0 mg/kg/injection, schedule: Q01DX009 (ip), vehicle: saline with Tween-80

With `CC(C)C(=O)NNCc1ccccc1` the T/C (dose: 12.5 mg/kg/injection, schedule: Q01DX009 (ip), vehicle: Klucel (hydroxypropylcellulose) (HPC)) was 106 % of control, the T/C (dose: 25.0 mg/kg/injection, schedule: Q01DX009 (ip), vehicle: Klucel (hydroxypropylcellulose) (HPC)) was 104 % of control and the T/C [1] was 97 % of control. For the same molecule, the T/C [2] was 92 % of control.

With `COc1ccc(COC(=O)Oc2ccc(OC)cc2)cc1` the T/C [3] was 102 % of control, the T/C [4] was 98 % of control and the T/C [5] was 112 % of control.

`N/N=C(/C(=O)c1ccccc1)c1ccccc1` was tested, and the T/C [6] was 102 % of control, the T/C [7] was 100 % of control and the T/C [8] was 96 % of control. The T/C [9] was 95 % of control, the T/C (dose: 400.0 mg/kg/injection, schedule: Q01DX001 (ip), vehicle: saline) was 96 % of control and the T/C [10] was 100 % of control.

In the case of `Cc1c(Cl)c(Cl)c(NS(=O)(=O)c2ccccc2)c(NS(=O)(=O)c2ccccc2)c1Cl`, the T/C [2] is reported as 95 % of control, the T/C [11] is reported as 103 % of control and the T/C [12] is reported as 100 % of control.

For `COC(=O)c1n[nH]c(C)c1N=NN(C)C`, the T/C (dose: 75.0 mg/kg/injection, schedule: Q01DX001 (ip), vehicle: saline) was 119 % of control and the T/C (dose: 150.0 mg/kg/injection, schedule: Q01DX001 (ip), vehicle: saline) was 123 % of control.

For `O=C(/C=C/C(=O)c1ccc(-c2ccccc2)cc1)c1ccc(-c2ccccc2)cc1`, the T/C [1] was 92 % of control, the T/C [2] was 87 % of control and the T/C [11] was 90 % of control. The T/C [12] was 87 % of control.

With `CCCCCCCCCCCCCCCCCCNC(=O)NCCc1ccccc1` the T/C (dose: 100.0 mg/kg/injection, schedule: Q04DX002 (ip), vehicle: Klucel (hydroxypropylcellulose) (HPC)) was 105 % of control, the T/C (dose: 200.0 mg/kg/injection, schedule: Q04DX002 (ip), vehicle: Klucel (hydroxypropylcellulose) (HPC)) was 99 % of control and the T/C (dose: 400.0 mg/kg/injection, schedule: Q04DX002 (ip), vehicle: Klucel (hydroxypropylcellulose) (HPC)) was 92 % of control.

For `Cc1ccc(O)c(S(=O)(=O)F)c1`, the T/C [3] was 104 % of control, the T/C [4] was 102 % of control and the T/C [5] was 102 % of control.

For `CC(=O)Oc1ccc(/C=N/NC(N)=S)nc1`, the T/C (dose: 24.0 mg/kg/injection, schedule: Q03HX024 (ip), vehicle: saline with Tween-80) was 212 % of control and the T/C (dose: 36.0 mg/kg/injection, schedule: Q03HX024 (ip), vehicle: saline with Tween-80) was 339 % of control.

`CC1(C)OC(COC(=O)c2ccccc2)C2OC(C)(C)OC(COC(=O)c3ccccc3)C2O1` (configuration not stated) was tested, and the T/C [13] was 93 % of control, the T/C [14] was 90 % of control and the T/C [15] was 95 % of control.

With `O=C1CC2=CC3C=CC(N1)C2c1ccccc13` (configuration not stated) the T/C [7] was 101 % of control, the T/C [9] was 93 % of control and the T/C [10] was 93 % of control.

With `Cc1cc2nncn2c2ccccc12` the T/C (dose: 50.0 mg/kg/injection, schedule: Q01DX001 (ip), vehicle: saline) was 103 % of control, the T/C [6] was 101 % of control and the T/C [8] was 101 % of control.

With `CCC1C(=O)N(c2ccc(S(=O)(=O)O)cc2)N=C1C` (configuration not stated) the T/C [3] was 95 % of control and the T/C [4] was 95 % of control.

In the case of `O=CNCC(=O)O`, the T/C [16] is reported as 92 % of control, the T/C (dose: 100.0 mg/kg/injection, schedule: Q04DX003 (ip), vehicle: saline) is reported as 97 % of control and the T/C [17] is reported as 95 % of control. The T/C (dose: 200.0 mg/kg/injection, schedule: Q04DX003 (ip), vehicle: saline) was 94 % of control, the T/C (dose: 400.0 mg/kg/injection, schedule: Q04DX002 (ip), vehicle: saline) was 92 % of control and the T/C (dose: 400.0 mg/kg/injection, schedule: Q04DX003 (ip), vehicle: saline) was 106 % of control.

In the case of `c1ccc(-c2cccc[c]2[Hg][c]2ccccc2-c2ccccc2)cc1`, the T/C [13] is reported as 96 % of control, the T/C [14] is reported as 93 % of control and the T/C [15] is reported as 93 % of control.

For `CCOC(=O)CCCN(c1ccccc1)S(=O)(=O)c1ccc(C)cc1`, the T/C [13] was 93 % of control, the T/C [14] was 96 % of control and the T/C [15] was 107 % of control.

For `CC(=O)Nc1ccc(S(=O)(=O)Nc2ccc(N(CCCl)CCCl)cc2)cc1`, the T/C (dose: 50.0 mg/kg/injection, schedule: Q04DX002 (ip), vehicle: saline with Tween-80) was 107 % of control, the T/C [18] was 110 % of control and the T/C [19] was 107 % of control. For the same molecule, the T/C [20] was 110 % of control.

With `CC1(C)C2CCC1(C)C(/C=N/NC(N)=O)C2` (configuration not stated) the T/C [21] was 94 % of control, the T/C [22] was 102 % of control and the T/C [23] was 105 % of control.

In the case of `CC(C)=CCC/C(C)=C/C=C1C(=O)NC(=S)NC1=O`, the T/C [24] is reported as 117 % of control, the T/C [25] is reported as 103 % of control and the T/C [26] is reported as 103 % of control.

For `COC(=O)C1CCC2(C)CCC(=O)C(C)C2C1` (configuration not stated), the T/C [21] was 101 % of control, the T/C [3] was 104 % of control and the T/C [22] was 104 % of control. For the same molecule, the T/C [4] was 106 % of control, the T/C [23] was 92 % of control and the T/C [5] was 104 % of control.

In the case of `CCC1(Cc2ccsc2)C(=O)NC(=O)NC1=O`, the T/C [13] is reported as 103 % of control, the T/C [14] is reported as 94 % of control and the T/C [15] is reported as 100 % of control.

For `Cc1ccc(NC(=O)Oc2ccc(Br)cc2Br)c(Cl)c1`, the T/C (dose: 25.0 mg/kg/injection, schedule: Q01DX009 (ip), vehicle: saline with Tween-80) was 104 % of control and 106 % of control, the T/C [24] was 101 % of control and 105 % of control and the T/C [18] was 101 % of control and 107 % of control. The T/C [7] was 103 % of control, the T/C [19] was 97 % of control and 101 % of control and the T/C [9] was 113 % of control. The T/C [20] was 103 % of control and 111 % of control and the T/C [10] was 103 % of control.

For `CCOC(=O)C1C(=O)C(CN(CCCl)CCCl)C(=O)C(C(=O)OCC)C1c1ccc(OC)c(OC)c1OC` (configuration not stated), the T/C [2] was 90 % of control, the T/C [11] was 92 % of control and the T/C [12] was 95 % of control.

For `Cc1ccc(C(C)C)c(O)c1C(=O)O`, the T/C [21] was 96 % of control and the T/C [22] was 104 % of control.

For `CCN(CC)C(=O)C1CCCCC1C` (configuration not stated), the T/C [16] was 111 % of control and the T/C [17] was 105 % of control.

With `Cc1cc2ccccc2c(N)c1C#N` the T/C [25] was 102 % of control and 106 % of control, the T/C [18] was 93 % of control and 100 % of control and the T/C [26] was 92 % of control and 90 % of control. For the same molecule, the T/C [19] was 91 % of control, the T/C (dose: 400.0 mg/kg/injection, schedule: Q01DX009 (ip), vehicle: saline with Tween-80) was 95 % of control and the T/C [20] was 100 % of control and 88 % of control.

For `O=CNn1cn[nH]c1=S`, the T/C [13] was 95 % of control, the T/C [14] was 98 % of control and the T/C [15] was 95 % of control.

With `Cc1cc2oc(/C=N/N3CCOCC3)c(C)c2cc1C` the T/C [2] was 96 % of control, the T/C [3] was 90 % of control and the T/C [11] was 103 % of control. The T/C [4] was 102 % of control, the T/C [12] was 99 % of control and the T/C [5] was 98 % of control.
